Test results published in patent US20030143635A1, “Assay for detection of transferase enzyme activity in drug screening” (AstraZeneca AB, priority 2000, published 2003).

What was measured:
[1] = target: T1, translocase and transferase enzymes (Escherichia coli, UniProt P0A6W3); format: biochemical; conditions: 6 μg/ml test compound; E. coli AMA1004 membranes; 37° C., 30 min; after subtracting 0% reaction readings
T1 sequence (P0A6W3 1-360): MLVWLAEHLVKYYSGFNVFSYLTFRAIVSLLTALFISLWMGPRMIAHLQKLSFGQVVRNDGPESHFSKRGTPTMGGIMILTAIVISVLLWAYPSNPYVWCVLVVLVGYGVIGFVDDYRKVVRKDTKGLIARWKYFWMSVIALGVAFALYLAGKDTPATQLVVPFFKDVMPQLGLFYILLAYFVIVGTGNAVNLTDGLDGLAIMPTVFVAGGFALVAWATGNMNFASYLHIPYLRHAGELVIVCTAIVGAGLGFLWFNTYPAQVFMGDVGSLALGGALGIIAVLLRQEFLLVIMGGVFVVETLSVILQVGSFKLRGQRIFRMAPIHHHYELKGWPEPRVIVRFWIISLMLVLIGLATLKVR
Procedure: (§1) (i) The wells of a microtitre plate were individually filled with a total volume of 25 μl of a reaction mixture comprising an aqueous buffer solution of 50 mM HEPES-ammonia (N-[2-Hydroxyethyl]piperazine-N′-[2-ethanesulfonic acid]) (pH 7.5), and 10 mM magnesium chloride 15 μM UDP-MurNAc-L-alanine-γ-D-glutamic acid-m-diaminopimelic acid-D-alanine-D-alanine, 2.5 μM tritiated UDP-N-acetyl glucosamine (0.2 μCi per well), 6 μg of Escherichia coli AMA1004 cell membranes prepared as described below and a solution of test compound (e.g. Tunicamycin, Vancomycin) of varying concentration in 4% dimethylsulphoxide.
(§2) Four wells of the microtitre plate were used as controls: two wells contained no UDP-N-acetylmuramylpentapeptide (0% reaction controls) and a further two wells contained no test compound (100% reaction controls).
(§3) The microtitre plate was incubated at 37° C. for 30 min and thereafter 5 μl of ethylenediaminetetraacetic acid (EDTA) was added to give a final EDTA concentration of 15 mM.
(§4) (ii) After addition of the EDTA, 170 μl of an aqueous suspension of wheatgerm agglutinin-coated scintillation proximity assay beads comprising 500 μg beads in a solution of HEPES-ammonia, pH 7.5, was added to each well such that the final concentration of HEPES-ammonia was 50 mM.
(§5) The plate was left for 3 hours/overnight at room temperature before being counted in the “Microbeta Trilux” counter.

[2] = target: T2, transferase enzyme (Escherichia coli, UniProt P17443); assay: Scintillation proximity assay of the transferase alone, with membranes of E. coli AMA1004 ΔponB::SpcR and pre-formed Lipid I (Example 4); format: biochemical; conditions: Tunicamycin 10 μg/ml present, 37° C., 5 min, after subtracting 0% reaction readings
T2 sequence (P17443 1-355): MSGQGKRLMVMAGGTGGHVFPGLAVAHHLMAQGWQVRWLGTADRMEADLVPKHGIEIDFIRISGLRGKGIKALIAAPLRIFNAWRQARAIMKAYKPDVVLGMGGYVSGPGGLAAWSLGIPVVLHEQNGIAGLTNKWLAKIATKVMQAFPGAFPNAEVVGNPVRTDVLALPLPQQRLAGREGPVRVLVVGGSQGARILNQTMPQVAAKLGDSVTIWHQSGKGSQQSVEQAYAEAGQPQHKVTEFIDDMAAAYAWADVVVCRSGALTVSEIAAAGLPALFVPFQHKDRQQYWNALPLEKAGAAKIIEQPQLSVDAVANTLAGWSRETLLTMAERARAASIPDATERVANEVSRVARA
Procedure: Microbiol., (1985), 131, 2839-2845. The plate was incubated for 20 min at 37° C.
(ii) Tunicamycin was then added to a final concentration of 10 μg/ml, followed by a test compound (e.g. Vancomycin or Nisin) of varying concentration in dimethyl sulphoxide. Nisin and Vancomycin are known antagonists of the transferase enzyme.
(iii) Then to the reaction well, in a 5 μl volume, the substrate for the transferase was added: 2.5 μM tritiated UDP-N-acetyl glucosamine (0.5 μCi per well). The microtitre plate was incubated for 5 min at 37° C.
(iv) The reaction was terminated by diluting out the radiolabel i.e. by addition of 25 μl of 200 μM unlabelled UDP-GlcNAc.

[3] = system: translocase and transferase enzymes; format: biochemical, Escherichia coli; conditions: 100 μM test compound; E. coli AMA1004 membranes; 37° C., 30 min; after subtracting 0% reaction readings
Procedure: as §1, §2, §3, §4, §5

Tunicamycin
% Inhibition [1]: 104%

Nisin
% Enzyme Activity ([2]; 10 μg/ml test compound): ˜30%

CN[C@H](CC(C)C)C(=O)N[C@H]1C(=O)N[C@@H](CC(N)=O)C(=O)N[C@H]2C(=O)N[C@H]3C(=O)N[C@H](C(=O)N[C@H](C(=O)O)c4cc(O)cc(O)c4-c4cc3ccc4O)[C@H](O)c3ccc(c(Cl)c3)Oc3cc2cc(c3O[C@@H]2O[C@H](CO)[C@@H](O)[C@H](O)[C@H]2O[C@H]2C[C@](C)(N)[C@H](O)[C@H](C)O2)Oc2ccc(cc2Cl)[C@H]1O [Vancomycin]
% Inhibition [3]: 82% | remaining activity at 100 µM ([2]; 100 μM test compound): ~50%
